Data: the CheMixHub ionic liquid set

Test: xn = mol fraction of the nth substance listed

CC[n+]1ccccc1.N#C[N-]C#N + CCCO
100 kPa
Conditions | viscosity [mPa·s]
288.15 K, x2 = 0.1095 | 20.5
288.15 K, x2 = 0.1947 | 17.6
288.15 K, x2 = 0.8012 | 4.59
293.15 K, x2 = 0 | 22.1
293.15 K, x2 = 0.3011 | 13.3
293.15 K, x2 = 0.8012 | 4.05
298.15 K, x2 = 0.5008 | 7.45
298.15 K, x2 = 0.9 | 2.77
303.15 K, x2 = 0.4029 | 8.04
303.15 K, x2 = 0.702 | 4.19
308.15 K, x2 = 0.1947 | 9.87
308.15 K, x2 = 0.5008 | 5.9
308.15 K, x2 = 0.8012 | 2.92
308.15 K, x2 = 0.9 | 2.24
313.15 K, x2 = 0.1947 | 8.76
313.15 K, x2 = 0.5008 | 5.31
318.15 K, x2 = 0 | 11
318.15 K, x2 = 0.5008 | 4.8
318.15 K, x2 = 0.702 | 3.12
318.15 K, x2 = 0.9 | 1.84

NCCN1CCNCC1 + CC(=O)[O-].CCCC[n+]1ccn(C)c1 + O
viscosity [mPa·s], 101 kPa
Conditions | 298.15 K | 303.15 K | 308.15 K | 313.15 K | 318.15 K | 323.15 K | 328.15 K | 333.15 K
x2 = 0.03479, x1 = 0.0177 | 3.7 | 3.32 | 3.04 | 2.97 | 2.6 | 2.31 | 2.16 | 1.97
x2 = 0.03897, x1 = 0.01333 | 3.73 | 3.62 | 3.32 | 2.99 | 2.61 | 2.41 | 2.31 | 2.11
x2 = 0.04311, x1 = 0.00893 | 3.76 | 3.66 | 3.32 | 3.02 | 2.64 | 2.48 | 2.34 | 2.21

CC[n+]1ccccc1.N#C[N-]C#N + CCO
100 kPa
Conditions | viscosity [mPa·s]
288.15 K, x2 = 0 | 25.9
288.15 K, x2 = 0.1008 | 21.3
293.15 K, x2 = 0.1008 | 17.9
298.15 K, x2 = 0 | 18.9
298.15 K, x2 = 0.1974 | 12.4
298.15 K, x2 = 0.3008 | 10.3
298.15 K, x2 = 0.7999 | 2.54
303.15 K, x2 = 0.9011 | 1.69
308.15 K, x2 = 0.5058 | 5.17
313.15 K, x2 = 0.3994 | 5.99
313.15 K, x2 = 0.5058 | 4.69
313.15 K, x2 = 0.5994 | 3.74
313.15 K, x2 = 0.6996 | 2.92
318.15 K, x2 = 0.1008 | 8.97
318.15 K, x2 = 0.3994 | 5.44

CCCCCCCCCn1cc[n+](C)c1.O=S(=O)([N-]S(=O)(=O)C(F)(F)F)C(F)(F)F + O
100 kPa, x2 = 0.1736
Conditions | viscosity [mPa·s]
298.15 K | 72.66
308.15 K | 46.59
318.15 K | 31.72
323.15 K | 26.65
358.15 K | 10.15
363.15 K | 9.09
